According to US20240067617A1 (Albireo AB, priority 2022, published 2024):

Columns and labels:
hLBAT = target: T1, hLBAT (Homo sapiens, UniProt Q14973); assay: LBAT (h/m) assay: 3H-taurocholic acid uptake in human LBAT-overexpressing cells; type: cell-based; settings: 0.3 μM 3H-taurocholic acid + 7.5 μM cold taurocholic acid, 20 minutes at 37° C.
T1 construct: expressed in transfected cells; kept under Geneticin selection
T1 sequence (Q14973 1-349): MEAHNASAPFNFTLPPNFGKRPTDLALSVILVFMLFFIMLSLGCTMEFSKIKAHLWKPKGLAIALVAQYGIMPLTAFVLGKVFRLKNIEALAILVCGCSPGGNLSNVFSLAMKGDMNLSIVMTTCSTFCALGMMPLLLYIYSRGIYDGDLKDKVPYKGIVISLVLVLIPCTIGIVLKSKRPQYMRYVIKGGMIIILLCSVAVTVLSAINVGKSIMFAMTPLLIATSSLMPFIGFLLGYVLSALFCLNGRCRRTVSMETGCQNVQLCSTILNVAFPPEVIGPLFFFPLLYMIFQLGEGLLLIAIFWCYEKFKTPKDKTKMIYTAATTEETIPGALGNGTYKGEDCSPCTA
Procedure: LBAT (h/m) Assay Protocol
20,000 cells (Human or Mouse LBAT-overexpressing cells) were seeded in 96-wells plate (Corning CLS3809) in 100 μL MEM-alpha medium (Gibco 12571-063) supplemented with 10% FBS (Gibco 10438026) containing Geneticin (Gibco 10131-027) (1 mg/mL) and incubated at 37° C. in 5% CO2 for 24 hours. After incubation, media was decanted from the wells and cells were washed two times with 300 μL of basal MEM-alpha medium (FBS-free). After decanting basal MEM-alpha medium each time, plates were tapped against paper towel to ensure maximum removal of residual media. For human LBAT, incubation mix was prepared by adding test inhibitor dilutions (3-fold serial dilution in DMSO (Sigma D2650), 10 points) in MEM-alpha (without FBS) containing 0.3 μM 3H-taurocholic acid (ARC ART-1368) and 7.5 μM cold taurocholic acid (Sigma T4009) (maintaining 0.2% final DMSO concentration). For mouse LBAT, incubation mix was prepared by adding test inhibitor dilutions (3-fold serial dilution in DMSO, 10 points) in MEM-alpha (without FBS) containing 0.3 μM 3H-taurocholic acid and 25 μM cold taurocholic acid maintaining 0.2% final DMSO concentration). 50 μL of incubation mix containing test inhibitors was then added to the wells (in duplicate) and the plates were incubated for 20 minutes in a CO2 incubator at 37° C. After incubation, the reaction was stopped by keeping the plates on ice water mix for 2-3 minutes and then the incubation mix was aspirated completely from the wells. The wells were washed two times with 250 μL of chilled unlabelled 1 mM taurocholic acid dissolved in HEPES (Gibco 15630080)-buffered (10 mM) HBSS (Gibco 14175079) (pH 7.4). The plates were tapped against a paper towel after every wash to ensure maximum removal of blocking buffer.
100 μL of MicroScint-20 (PerkinElmer 6013621) was added to the wells and kept overnight at RT before reading the plates in TopCount NXT™ Microplate Scintillation and Luminescence Counter from PerkinElmer under 3H Test protocol (set at 120 seconds reading time per well, with normal plate orientation).
(§1) Preparation of Test Compound Dilutions
(§2) All test compounds were provided in powder form at RT. 10 mM DMSO stocks of the test compounds were prepared, aliquoted and stored at −20° C. From the 10 mM DMSO stock of the compounds, a 3-fold serial dilution in DMSO was prepared to get a total of 10 dilutions of the test compounds. 0.5 μL of this dilution in DMSO was added to 250 μL of FBS-free basal media containing 3H-taurocholic acid and cold taurocholic acid to prepare the incubation mixture.

hIBAT = target: T2, hIBAT (Homo sapiens, UniProt Q12908); assay: IBAT (h/m) assay: 3H-taurocholic acid uptake in human IBAT-overexpressing cells; type: cell-based; settings: 0.25 μM 3H-taurocholic acid + 5 μM cold taurocholic acid, 20 minutes at 37° C., highest test concentration 10 μM
T2 construct: expressed in transfected cells; kept under Puromycin selection
T2 sequence (Q12908 1-348): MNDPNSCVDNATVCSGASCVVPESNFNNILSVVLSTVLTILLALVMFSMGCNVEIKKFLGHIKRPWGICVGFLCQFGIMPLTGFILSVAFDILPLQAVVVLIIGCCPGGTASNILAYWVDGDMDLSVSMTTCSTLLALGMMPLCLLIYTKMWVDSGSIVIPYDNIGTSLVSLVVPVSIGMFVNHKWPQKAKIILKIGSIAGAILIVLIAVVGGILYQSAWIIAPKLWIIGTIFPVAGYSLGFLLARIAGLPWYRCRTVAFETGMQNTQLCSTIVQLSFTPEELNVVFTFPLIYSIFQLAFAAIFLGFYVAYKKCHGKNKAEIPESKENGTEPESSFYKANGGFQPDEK
Procedure: IBAT (h/m) Assay Protocol
10,000 cells (Human or Mouse IBAT-overexpressing cells) were seeded in 96-wells plate (Corning CLS3809) in 200 μL MEM-alpha medium (Gibco 12571-063) supplemented with 10% FBS (Gibco 10438026) containing Puromycin (Gibco A1113803) (10 μg/mL) and incubated at 37° C. in 5% CO2 for 48 hours. After incubation, media was decanted from the wells and cells were washed two times with 300 μL of basal MEM-alpha medium (FBS-free). After decanting basal MEM-alpha medium each time, plates were tapped against paper towel to ensure maximum removal of residual media. Test inhibitor dilutions (highest test concentration being 10 μM, 3-fold serial dilution, 10 points) prepared in DMSO (Sigma D2650) were added in incubation mix (maintaining 0.2% final DMSO concentration) containing 0.25 μM 3H-taurocholic acid (ARC ART-1368) and 5 μM of cold taurocholic acid (Sigma T4009). 50 μL of incubation mix containing test inhibitors was then added to the wells (in duplicate) and the plates were incubated for 20 minutes in a CO2 incubator at 37° C. After incubation, the reaction was stopped by keeping the plates on ice water mix for 2-3 minutes and then the incubation mix was aspirated completely from the wells. The wells were washed two times with 250 μL of chilled unlabelled 1 mM taurocholic acid dissolved in HEPES (Gibco 15630080)-buffered (10 mM) HBSS (Gibco 14175079) (pH 7.4). The plates were tapped against a paper towel after every wash to ensure maximum removal of blocking buffer.
100 μL of MicroScint-20 (PerkinElmer 6013621) was added to the wells and kept overnight at RT before reading the plates in TopCount NXT™ Microplate Scintillation and Luminescence Counter from PerkinElmer under 3H Test protocol (set at 120 seconds reading time per well).
as §1, §2

Compound	IC50 (hLBAT)	IC50 (hIBAT)
CCCCC1CN(c2ccccc2)c2cc(OC)c(CSCC(=O)O)cc2S(=O)(=O)N1C (single isomer, unassigned) [36, enantiomer 2]	0.155 µM	2.75 µM
CCCCC1CN(c2ccccc2)c2cc(OC)c(CSC(C)(C)C(=O)O)cc2S(=O)(=O)N1C (single isomer, unassigned) [38, enantiomer 1]	1.13 µM	> 10 µM
CCCCC1CN(c2ccccc2)c2cc(OC)c(CSC(C)(C)C(=O)O)cc2S(=O)(=O)N1C (single isomer, unassigned) [38, enantiomer 2]	0.0066 µM	1.6 µM
CCCCC1(CC)CN(c2ccc(F)cc2)c2cc(OC)c(CSCC(=O)O)cc2S(=O)(=O)C1 (single isomer, unassigned) [40, enantiomer 1]	> 10 µM	0.0014 µM
CCCCC1(CC)CN(c2ccc(F)cc2)c2cc(OC)c(CSCC(=O)O)cc2S(=O)(=O)C1 (single isomer, unassigned) [40, enantiomer 2]	> 10 µM	0.036 µM
CCCCC1(C)CN(c2ccccc2)c2cc(OC)c(CSC(C)(C)C(=O)O)cc2S(=O)(=O)C1 (single isomer, unassigned) [42, enantiomer 1]	0.223 µM	0.704 µM
CCCCC1(C)CN(c2ccccc2)c2cc(OC)c(CSC(C)(C)C(=O)O)cc2S(=O)(=O)C1 (single isomer, unassigned) [42, enantiomer 2]	0.241 µM	> 10 µM
CCCCC1(CC)CN(c2ccccc2)c2cc(OC)c(CSCC(=O)O)cc2S(=O)(=O)N1 (single isomer, unassigned) [45, enantiomer 1]	> 1 µM	0.028 µM
CCCCC1(CC)CN(c2ccccc2)c2cc(S(C)(=O)=O)c(CSCC(=O)O)cc2S(=O)(=O)N1 (single isomer, unassigned) [48, enantiomer 1]	> 1 µM	0.231 µM
CCCCC1(CC)CN(c2ccccc2)c2cc(S(C)(=O)=O)c(CSCC(=O)O)cc2S(=O)(=O)N1 (single isomer, unassigned) [48, enantiomer 2]	> 1 µM	0.0058 µM
CCCCC1(CCCC)CN(c2ccccc2)c2cc(SC)c(CSCC(=O)O)cc2S(=O)(=O)C1 [Example 3, 2-(((3,3-dibutyl-7-(methylthio)-1,1-dioxido-5-phenyl-2,3,4,5-tetrahydro-1,5-benzothiazepin-8-yl)methyl)thio)acetic acid]	3.37 µM	0.0017 µM
CCCCC1(CCCC)CN(c2ccccc2)c2cc(SC)c(CSCC(=O)O)cc2S(=O)(=O)N1 [Example 8, 2-(((3,3-dibutyl-7-(methylthio)-1,1-dioxido-5-phenyl-2,3,4,5-tetrahydro-1,2,5-benzothiadiazepin-8-yl)methyl)thio)acetic acid]	> 3.33 µM	0.0008 µM
CCCCC1(CCCC)CN(c2ccccc2)c2cc(SC)c(CSC(C)(C)C(=O)O)cc2S(=O)(=O)C1 [Example 17, 2-(((3,3-Dibutyl-7-(methylthio)-1,1-dioxido-5-phenyl-2,3,4,5-tetrahydro-1,5-benzothiazepin-8-yl)methyl)thio)-2-methylpropanoic acid]	0.216 µM	0.088 µM

Next, values leading:

IC50 (hLBAT)	IC50 (hIBAT)	Compound
2.51 µM	0.522 µM	CCCCC1(CC)CN(c2ccccc2)c2cc(SC)c(CSCC(=O)O)cc2S(=O)(=O)N1C (stereo not drawn) [Example 20, 2-(((3-Butyl-3-ethyl-2-methyl-7-(methylthio)-1,1-dioxido-5-phenyl-2,3,4,5-tetrahydro-1,2,5-benzothiadiazepin-8-yl)methyl)thio)acetic acid]
> 3.33 µM	0.9 µM	CCCCC1(CCCC)CN(c2ccccc2)c2cc(SC)c(CSCC(=O)O)cc2S(=O)(=O)N1C [Example 22, 2-(((3,3-dibutyl-2-methyl-7-(methylthio)-1,1-dioxido-5-phenyl-2,3,4,5-tetrahydro-1,2,5-benzothiadiazepin-8-yl)methyl)thio)acetic acid]
0.145 µM	> 3.33 µM	CCCCC1(CCCC)CN(c2ccccc2)c2cc(SC)c(CSC(C)(C)C(=O)O)cc2S(=O)(=O)N1C [Example 23, 2-(((3,3-dibutyl-2-methyl-7-(methylthio)-1,1-dioxido-5-phenyl-2,3,4,5-tetrahydro-1,2,5-benzothiadiazepin-8-yl)methyl)thio)-2-methylpropanoic acid]
0.085 µM	> 3.33 µM	CCCCC1(CC)CN(c2ccccc2)c2cc(SC)c(CSC(C)(C)C(=O)O)cc2S(=O)(=O)N1C (stereo not drawn) [Example 24]
> 3.33 µM	0.0013 µM	CCCCC1(CCCC)CN(c2ccccc2)c2cc(OC)c(CSCC(=O)O)cc2S(=O)(=O)C1 [Example 31, 2-(((3,3-dibutyl-7-methoxy-1,1-dioxido-5-phenyl-2,3,4,5-tetrahydro-1,5-benzothiazepin-8-yl)methyl)thio)acetic acid]
> 3.33 µM	0.0006 µM	CCCCC1(CCCC)CN(c2ccc(F)cc2)c2cc(OC)c(CSCC(=O)O)cc2S(=O)(=O)C1 [Example 32, 2-(((3,3-dibutyl-5-(4-fluorophenyl)-7-methoxy-1,1-dioxido-2,3,4,5-tetrahydro-1,5-benzothiazepin-8-yl)methyl)thio)acetic acid]
0.251 µM	0.861 µM	CCCCC1(CCCC)CN(c2ccccc2)c2cc(OC)c(CSC(C)(C)C(=O)O)cc2S(=O)(=O)C1 [Example 43, 2-(((3,3-dibutyl-7-methoxy-1,1-dioxido-5-phenyl-2,3,4,5-tetrahydro-1,5-benzothiazepin-8-yl)methyl)thio)-2-methylpropanoic acid]
> 1 µM	0.0048 µM	CCCCC1(CC)CN(c2ccccc2)c2cc(N(C)C)c(CSCC(=O)O)cc2S(=O)(=O)N1 (stereo not drawn) [Example 46, 2-(((3-butyl-7-(dimethylamino)-3-ethyl-1,1-dioxido-5-phenyl-2,3,4,5-tetrahydro-1,2,5-benzothiadiazepin-8-yl)methyl)thio)acetic acid]
